The NIST ThermoML archive (doi:10.1007/s10765-006-0056-z)
Numbers after ± are expanded uncertainties.

Assay: molar heat capacity at constant volume; xn = mol fraction of the nth substance listed
Details: x1 = 0.095

With `CCCCCCCCCC` [decane] + O=C=O the “molar heat capacity at constant volume” value (339.76 K, Fluid (supercritical or subcritical phases), Mass density=658.8 kg/m3, Isochoric Heat Capacity Apparatus) was 341.25 ± 6.8 J/K/mol, the “molar heat capacity at constant volume” value (339.76 K, Liquid, iso) was 405.37 ± 8.1 J/K/mol and the “molar heat capacity at constant volume” value (339.81 K, Fluid (supercritical or subcritical phases), Mass density=658.8 kg/m3, Isochoric Heat Capacity Apparatus) was 339.06 ± 6.8 J/K/mol. For the same molecule, the “molar heat capacity at constant volume” value (340.21 K, Fluid (supercritical or subcritical phases), Mass density=658.8 kg/m3, Isochoric Heat Capacity Apparatus) was 339.7 ± 6.8 J/K/mol, the “molar heat capacity at constant volume” value (340.44 K, Fluid (supercritical or subcritical phases), Mass density=658.8 kg/m3, Isochoric Heat Capacity Apparatus) was 339.06 ± 6.8 J/K/mol and the “molar heat capacity at constant volume” value (341.36 K, Fluid (supercritical or subcritical phases), Mass density=658.8 kg/m3, Isochoric Heat Capacity Apparatus) was 337.04 ± 6.7 J/K/mol. For the same molecule, the “molar heat capacity at constant volume” value (342.32 K, Fluid (supercritical or subcritical phases), Mass density=658.8 kg/m3, Isochoric Heat Capacity Apparatus) was 337.68 ± 6.8 J/K/mol, the “molar heat capacity at constant volume” value (348.73 K, Fluid (supercritical or subcritical phases), Mass density=658.8 kg/m3, Isochoric Heat Capacity Apparatus) was 325.41 ± 6.5 J/K/mol and the “molar heat capacity at constant volume” value (352.09 K, Fluid (supercritical or subcritical phases), Mass density=622.7 kg/m3, Isochoric Heat Capacity Apparatus) was 341.73 ± 6.8 J/K/mol. The “molar heat capacity at constant volume” value (352.09 K, Liquid, iso) was 393.1 ± 7.8 J/K/mol, the “molar heat capacity at constant volume” value (352.5 K, Fluid (supercritical or subcritical phases), Mass density=622.7 kg/m3, Isochoric Heat Capacity Apparatus) was 340.82 ± 6.8 J/K/mol and the “molar heat capacity at constant volume” value (352.9 K, Fluid (supercritical or subcritical phases), Mass density=622.7 kg/m3, Isochoric Heat Capacity Apparatus) was 339.06 ± 6.8 J/K/mol. For the same molecule, the “molar heat capacity at constant volume” value (354.63 K, Fluid (supercritical or subcritical phases), Mass density=622.7 kg/m3, Isochoric Heat Capacity Apparatus) was 337.04 ± 6.7 J/K/mol, the “molar heat capacity at constant volume” value (362.18 K, Fluid (supercritical or subcritical phases), Mass density=658.8 kg/m3, Isochoric Heat Capacity Apparatus) was 313.14 ± 6.2 J/K/mol and the “molar heat capacity at constant volume” value (364 K, Fluid (supercritical or subcritical phases), Mass density=622.7 kg/m3, Isochoric Heat Capacity Apparatus) was 323.65 ± 6.5 J/K/mol. The “molar heat capacity at constant volume” value (368.53 K, Fluid (supercritical or subcritical phases), Mass density=574.1 kg/m3, Isochoric Heat Capacity Apparatus) was 365.42 ± 7.3 J/K/mol, the “molar heat capacity at constant volume” value (368.53 K, Liquid, iso) was 393.1 ± 7.8 J/K/mol and the “molar heat capacity at constant volume” value (368.83 K, Fluid (supercritical or subcritical phases), Mass density=574.1 kg/m3, Isochoric Heat Capacity Apparatus) was 364.08 ± 7.3 J/K/mol. The “molar heat capacity at constant volume” value (369.77 K, Fluid (supercritical or subcritical phases), Mass density=574.1 kg/m3, Isochoric Heat Capacity Apparatus) was 359.39 ± 7.2 J/K/mol, the “molar heat capacity at constant volume” value (371.23 K, Fluid (supercritical or subcritical phases), Mass density=658.8 kg/m3, Isochoric Heat Capacity Apparatus) was 303.75 ± 6.1 J/K/mol and the “molar heat capacity at constant volume” value (380.81 K, Fluid (supercritical or subcritical phases), Mass density=622.7 kg/m3, Isochoric Heat Capacity Apparatus) was 305.78 ± 6.1 J/K/mol. The “molar heat capacity at constant volume” value (383.81 K, Fluid (supercritical or subcritical phases), Mass density=534.8 kg/m3, Isochoric Heat Capacity Apparatus) was 350.91 ± 7 J/K/mol, the “molar heat capacity at constant volume” value (384.11 K, Fluid (supercritical or subcritical phases), Mass density=534.8 kg/m3, Isochoric Heat Capacity Apparatus) was 347.55 ± 6.9 J/K/mol and the “molar heat capacity at constant volume” value (385.02 K, Fluid (supercritical or subcritical phases), Mass density=574.1 kg/m3, Isochoric Heat Capacity Apparatus) was 318.95 ± 6.4 J/K/mol. The “molar heat capacity at constant volume” value (385.79 K, Fluid (supercritical or subcritical phases), Mass density=534.8 kg/m3, Isochoric Heat Capacity Apparatus) was 348.67 ± 7 J/K/mol, the “molar heat capacity at constant volume” value (387.65 K, Fluid (supercritical or subcritical phases), Mass density=534.8 kg/m3, Isochoric Heat Capacity Apparatus) was 339.49 ± 6.8 J/K/mol and the “molar heat capacity at constant volume” value (393.22 K, Fluid (supercritical or subcritical phases), Mass density=509.4 kg/m3, Isochoric Heat Capacity Apparatus) was 349.31 ± 7 J/K/mol. The “molar heat capacity at constant volume” value (393.66 K, Fluid (supercritical or subcritical phases), Mass density=622.7 kg/m3, Isochoric Heat Capacity Apparatus) was 307.11 ± 6.1 J/K/mol, the “molar heat capacity at constant volume” value (394.42 K, Fluid (supercritical or subcritical phases), Mass density=509.4 kg/m3, Isochoric Heat Capacity Apparatus) was 339.06 ± 6.8 J/K/mol and the “molar heat capacity at constant volume” value (395.94 K, Fluid (supercritical or subcritical phases), Mass density=509.4 kg/m3, Isochoric Heat Capacity Apparatus) was 340.82 ± 6.8 J/K/mol. The “molar heat capacity at constant volume” value (397.67 K, Fluid (supercritical or subcritical phases), Mass density=498 kg/m3, Isochoric Heat Capacity Apparatus) was 351.12 ± 7 J/K/mol, the “molar heat capacity at constant volume” value (397.78 K, Fluid (supercritical or subcritical phases), Mass density=574.1 kg/m3, Isochoric Heat Capacity Apparatus) was 312.23 ± 6.2 J/K/mol and the “molar heat capacity at constant volume” value (398.32 K, Fluid (supercritical or subcritical phases), Mass density=498 kg/m3, Isochoric Heat Capacity Apparatus) was 353.09 ± 7 J/K/mol. The “molar heat capacity at constant volume” value (399.4 K, Fluid (supercritical or subcritical phases), Mass density=498 kg/m3, Isochoric Heat Capacity Apparatus) was 343.97 ± 6.9 J/K/mol, the “molar heat capacity at constant volume” value (401.33 K, Fluid (supercritical or subcritical phases), Mass density=534.8 kg/m3, Isochoric Heat Capacity Apparatus) was 323.65 ± 6.5 J/K/mol and the “molar heat capacity at constant volume” value (403.37 K, Fluid (supercritical or subcritical phases), Mass density=574.1 kg/m3, Isochoric Heat Capacity Apparatus) was 314.26 ± 6.3 J/K/mol. For the same molecule, the “molar heat capacity at constant volume” value (404.76 K, Fluid (supercritical or subcritical phases), Mass density=509.4 kg/m3, Isochoric Heat Capacity Apparatus) was 325.19 ± 6.5 J/K/mol, the “molar heat capacity at constant volume” value (404.98 K, Fluid (supercritical or subcritical phases), Mass density=477.6 kg/m3, Isochoric Heat Capacity Apparatus) was 347.33 ± 6.9 J/K/mol and the “molar heat capacity at constant volume” value (405.41 K, Fluid (supercritical or subcritical phases), Mass density=477.6 kg/m3, Isochoric Heat Capacity Apparatus) was 344.18 ± 6.9 J/K/mol. For the same molecule, the “molar heat capacity at constant volume” value (406.9 K, Fluid (supercritical or subcritical phases), Mass density=534.8 kg/m3, Isochoric Heat Capacity Apparatus) was 319.59 ± 6.4 J/K/mol, the “molar heat capacity at constant volume” value (407.33 K, Fluid (supercritical or subcritical phases), Mass density=477.6 kg/m3, Isochoric Heat Capacity Apparatus) was 339.28 ± 6.8 J/K/mol and the “molar heat capacity at constant volume” value (410.31 K, Fluid (supercritical or subcritical phases), Mass density=509.4 kg/m3, Isochoric Heat Capacity Apparatus) was 327.43 ± 6.6 J/K/mol. The “molar heat capacity at constant volume” value (410.94 K, Fluid (supercritical or subcritical phases), Mass density=498 kg/m3, Isochoric Heat Capacity Apparatus) was 327.01 ± 6.6 J/K/mol, the “molar heat capacity at constant volume” value (411.47 K, Fluid (supercritical or subcritical phases), Mass density=574.1 kg/m3, Isochoric Heat Capacity Apparatus) was 311.32 ± 6.2 J/K/mol and the “molar heat capacity at constant volume” value (416.01 K, Fluid (supercritical or subcritical phases), Mass density=477.6 kg/m3, Isochoric Heat Capacity Apparatus) was 330.31 ± 6.6 J/K/mol. For the same molecule, the “molar heat capacity at constant volume” value (416.64 K, Fluid (supercritical or subcritical phases), Mass density=509.4 kg/m3, Isochoric Heat Capacity Apparatus) was 321.62 ± 6.5 J/K/mol, the “molar heat capacity at constant volume” value (422.51 K, Fluid (supercritical or subcritical phases), Mass density=498 kg/m3, Isochoric Heat Capacity Apparatus) was 321.62 ± 6.5 J/K/mol and the “molar heat capacity at constant volume” value (423.55 K, Fluid (supercritical or subcritical phases), Mass density=509.4 kg/m3, Isochoric Heat Capacity Apparatus) was 319.59 ± 6.4 J/K/mol. For the same molecule, the “molar heat capacity at constant volume” value (428.94 K, Fluid (supercritical or subcritical phases), Mass density=477.6 kg/m3, Isochoric Heat Capacity Apparatus) was 321.41 ± 6.5 J/K/mol, the “molar heat capacity at constant volume” value (432.24 K, Fluid (supercritical or subcritical phases), Mass density=509.4 kg/m3, Isochoric Heat Capacity Apparatus) was 320.07 ± 6.4 J/K/mol and the “molar heat capacity at constant volume” value (434.61 K, Fluid (supercritical or subcritical phases), Mass density=398.3 kg/m3, Isochoric Heat Capacity Apparatus) was 344.61 ± 6.9 J/K/mol. For the same molecule, the “molar heat capacity at constant volume” value (434.91 K, Fluid (supercritical or subcritical phases), Mass density=398.3 kg/m3, Isochoric Heat Capacity Apparatus) was 342.64 ± 6.8 J/K/mol, the “molar heat capacity at constant volume” value (436.96 K, Fluid (supercritical or subcritical phases), Mass density=398.3 kg/m3, Isochoric Heat Capacity Apparatus) was 343.06 ± 6.9 J/K/mol and the “molar heat capacity at constant volume” value (437.68 K, Fluid (supercritical or subcritical phases), Mass density=498 kg/m3, Isochoric Heat Capacity Apparatus) was 321.19 ± 6.4 J/K/mol. The “molar heat capacity at constant volume” value (438.19 K, Fluid (supercritical or subcritical phases), Mass density=509.4 kg/m3, Isochoric Heat Capacity Apparatus) was 318.05 ± 6.3 J/K/mol, the “molar heat capacity at constant volume” value (440.43 K, Fluid (supercritical or subcritical phases), Mass density=534.8 kg/m3, Isochoric Heat Capacity Apparatus) was 316.28 ± 6.3 J/K/mol and the “molar heat capacity at constant volume” value (442.03 K, Fluid (supercritical or subcritical phases), Mass density=534.8 kg/m3, Isochoric Heat Capacity Apparatus) was 316.5 ± 6.3 J/K/mol. The “molar heat capacity at constant volume” value (442.05 K, Fluid (supercritical or subcritical phases), Mass density=498 kg/m3, Isochoric Heat Capacity Apparatus) was 321.19 ± 6.4 J/K/mol, the “molar heat capacity at constant volume” value (442.66 K, Fluid (supercritical or subcritical phases), Mass density=477.6 kg/m3, Isochoric Heat Capacity Apparatus) was 322.31 ± 6.5 J/K/mol and the “molar heat capacity at constant volume” value (442.88 K, Fluid (supercritical or subcritical phases), Mass density=498 kg/m3, Isochoric Heat Capacity Apparatus) was 321.19 ± 6.4 J/K/mol.
